The record followed here is patent US8318196B2, “Formulations comprising a vitamin and the use thereof to make fortified feed and personal care formulations” (Akzo Nobel N.V., priority 2006, dated 2012).

This series is described as follows: Transmission of aqueous vitamin / castor oil ethoxylate formulations (Turbiscan LAb). The format is physicochemical. To be noted: ingredients preheated to 50° C. The protocol: Castor oil ethoxylates were evaluated in formulations with various vitamins by mixing 4 g of a vitamin with 4 g of the castor oil ethoxylate and subsequently adding 28 g water. All ingredients were preheated to 50° C. The transmission (light passing the through the emulsion) was measured using standard Turbiscan™ LAb equipment ex Formulaction. In the evaluation of the samples the highest transmission is looked for, since it indicates a clearer (and better) formulation.

Setting [1] is: Comparative Example B: 4 g vitamin + 4 g CO36EO + 28 g water, unit assumed.
[2] abbreviates: Example 1: 4 g vitamin + 4 g CO20EO + 28 g water, higher = clearer, better, unit assumed.

Regarding `C=C1CC[C@H](O)C/C1=C/C=C1\CCC[C@]2(C)[C@@H]([C@H](C)CCCC(C)C)CC[C@@H]12` [Vit D3], the transmission (light passing through the emulsion) reads like this: (Comparative Example A: 4 g vitamin + 4 g CO28EO + 28 g water, unit assumed) 64.4%; under setting [1], 2%; under setting [2], 56.7%.
With `CC(=O)OC/C=C(C)/C=C/C=C(C)/C=C/C1=C(C)CCCC1(C)C` [Vit A acetate], the “transmission (light passing through the emulsion)” value by setting is: (Comparative Example A: 4 g vitamin + 4 g CO28EO + 28 g water) “Not stable”; under setting [1], 0%; under setting [2], 2.2%.
